Among the data in ChEMBL document CHEMBL3046373, “Optimised expression and spectral analysis of the target enzyme CYP51 from Penicillium digitatum with possible new DMI fungicides” (Pest Manag Sci, 2010) are Kd and EC50 values, retold here.

The target of assay [1] is T1, Cytochrome P450 14alpha-demethylase (Penicillium digitatum, UniProt A1XG20).
T1 sequence (A1XG20 whole entry): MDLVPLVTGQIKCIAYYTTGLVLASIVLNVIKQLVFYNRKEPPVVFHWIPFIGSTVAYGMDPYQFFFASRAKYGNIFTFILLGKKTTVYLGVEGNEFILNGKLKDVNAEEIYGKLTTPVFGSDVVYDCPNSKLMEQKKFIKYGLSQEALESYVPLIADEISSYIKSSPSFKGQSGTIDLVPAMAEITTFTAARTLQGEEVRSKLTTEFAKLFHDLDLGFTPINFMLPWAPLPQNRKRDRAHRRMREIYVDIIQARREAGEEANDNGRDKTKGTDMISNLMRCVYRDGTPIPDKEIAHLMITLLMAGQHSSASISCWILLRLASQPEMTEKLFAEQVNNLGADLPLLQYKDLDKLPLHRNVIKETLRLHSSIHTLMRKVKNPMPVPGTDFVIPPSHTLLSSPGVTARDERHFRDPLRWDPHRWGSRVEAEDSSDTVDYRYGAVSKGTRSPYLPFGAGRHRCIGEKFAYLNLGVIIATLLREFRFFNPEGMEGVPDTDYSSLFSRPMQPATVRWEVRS
Put plainly: Binding affinity to Penicillium digitatum recombinant N-terminal-His6 tagged CYP51 expressed in Escherichia coli BL21(DE3) by spectrophotometric analysis.

For another assay, the system named is Penicillium digitatum. Put plainly: Antifungal activity against Penicillium digitatum after 48 hr. The format is functional, organism-based.

Structures are written as SMILES. Converted amounts (≈) assume the structure as drawn.

A word on the Kd: it is the equilibrium constant for the complex coming apart. The term EC50 denotes the midpoint of the concentration-response curve.

For `CC(C)(C)C(O)/C(=C\c1ccc(Cl)cc1Cl)n1cncn1` (stereo not given) [DINICONAZOLE], the Kd in assay [1] stood at 120 nM.

For the compound `c1cc2c3c(cccc3c1)NC(c1cnc[nH]1)N2`, the Kd in assay [1] was 990 nM. The EC50 with Penicillium digitatum was determined as 38.6 µg/mL (≈ 163 µM). Taken in the same sequence, the figures for `Nc1nnc(CSCc2ccc(Cl)cc2)s1` were 642 nM and 7.88 µg/mL (≈ 29 µM).

On to `COc1ccc2c(c1)SCC(N)=N2` [7-METHOXY-2H-BENZO[B][1,4]THIAZINE-3-AMINE], for which the Kd in assay [1] was 268 nM. Besides, the EC50 in the assay on Penicillium digitatum turned out to be 1.18 µg/mL (≈ 6.07 µM). In the same order, the values of `NNc1ncncc1-c1ccccc1` [5-PHENYLPYRIMIDIN-4-YLHYDRAZINE] are 658 nM and 10.1 µg/mL (≈ 54.2 µM). For `CC(C)(C)C(=O)C(Oc1ccc(Cl)cc1)n1cncn1` (stereo not given) [TRIADIMEFON], the Kd in assay [1] came out at 420 nM.
